Like-named read-outs stand apart in the source and are kept apart here.
Experiments:
[1] = tested on: HTT mRNA; assay: RT-qPCR splicing assay, HTT mRNA canonical (CJ) and alternative (AJ) junction; format: cell-based, human; conditions: Homo sapiens; for AC50: HTT alternative junction mRNA, read-out: HTT AJ (increase in AJ mRNA, AC50)
Summary of the method: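 Canonical and alternative-exon junction isoforms were quantified by RT-qPCR in cell lysates, with ΔCt against a housekeeper (GAPDH/GUSB/PPIA), then ΔΔCt vs DMSO, converted to 2^(−ΔΔCt) and percent response. K562 or A673 cells were exposed for 24 h to 11 concentrations (3-fold, top final 10 uM).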

[2] = tested on: Target C; assay: RT-qPCR canonical junction panel assay, Target C mRNA; format: cell-based; conditions: Table 4, read-out: Target C IC50 (decrease in CJ mRNA levels)
Summary of the method: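 IC50 is the concentration giving 50% CJ decrease, from a 4-parameter logistic fit of percent response; response derived from ΔΔCt against housekeeper and DMSO over a fixed ΔCt window, with canonical exon-junction qPCR in compound-treated K562 or A673 cells.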

[3] = HTT canonical junction mRNA, RT-qPCR, read-out: HTT CJ (decrease in CJ mRNA levels, IC50)
[4] = canonical junction qPCR panel, Table 4, read-out: HTT IC50 (decrease in CJ mRNA levels)

IC50 [1, 3] | IC50 [1, 4] | IC50 [2] | Structure (SMILES) | AC50 ([1]; RT-qPCR)
100 to 1000 nM | 100 to 1000 nM | 1000 to 10000 nM | Cc1c(O)c(-c2ncc3nc(N4CCNCC4)ccc3n2)cc2cn(C)nc12 [Compound 338, 2,7-dimethyl-5-[6-(piperazin-1-yl)pyrido[3,2-d]pyrimidin-2-yl]indazol-6-ol] | 1000 to 10000 nM
100 to 1000 nM | 100 to 1000 nM | 100 to 1000 nM | Cc1nc2cc(O)c(-c3ccc4nc(N5CCC(NC(C)(C)C)C5)ccc4n3)cc2n1C (stereo not shown) [Compound 339, 6-{6-[3-(tert-butylamino)pyrrolidin-1-yl]-1,5-naphthyridin-2-yl}-1,2-dimethyl-1,3-benzodiazol-5-ol] | 100 to 1000 nM
100 to 1000 nM | 100 to 1000 nM | 100 to 1000 nM | Cc1nc2cc(-c3ccc4nc(N5CCC(NC(C)(C)C)C5)ccc4n3)c(O)cc2n1C (stereo not shown) [Compound 340, 6-{6-[3-(tert-butylamino)pyrrolidin-1-yl]-1,5-naphthyridin-2-yl}-2,3-dimethyl-1,3-benzodiazol-5-ol] | 100 to 1000 nM
100 to 1000 nM | 100 to 1000 nM | 100 to 1000 nM | Cn1cc2cc(-c3ccc4nc(N5CCC(NC67CC(O)(C6)C7)C5)ccc4n3)c(O)cc2n1 (stereo not shown) [Compound 341, 5-{6-[3-({3-hydroxybicyclo[1.1.1]pentan-1-yl}amino)pyrrolidin-1-yl]-1,5-naphthyridin-2-yl}-2-methylindazol-6-ol] | 100 to 1000 nM
100 to 1000 nM | 100 to 1000 nM | 100 to 1000 nM | Cc1c(O)c(-c2ncc3nc(N4CCC5(CCN5)C4)ccc3n2)cc2cn(C)nc12 (stereo not shown) [Compound 342, 5-(6-{1,6-diazaspiro[3.4]octan-6-yl}pyrido[3,2-d]pyrimidin-2-yl)-2,7-dimethylindazol-6-ol] | 100 to 1000 nM
1000 to 10000 nM | 1000 to 10000 nM | 1000 to 10000 nM | CCc1nc2cc(O)c(-c3ccc4nc(N5CCC(NC(C)(C)C)C5)ccc4n3)cc2o1 (stereo not shown) [Compound 346, 6-{6-[3-(tert-butylamino)pyrrolidin-1-yl]-1,5-naphthyridin-2-yl}-2-ethyl-1,3-benzoxazol-5-ol] | 1000 to 10000 nM
< 100 nM | < 100 nM | 100 to 1000 nM | Cc1nc2cc(O)c(-c3ccc4nc(N5CC[C@H](N[C@H]6C[C@H](F)C6)C5)ccc4n3)cc2o1 [Compound 350, 2-methyl-6-{6-[(3S)-3-{[(1r,3r)-3-fluorocyclobutyl]amino}pyrrolidin-1-yl]-1,5-naphthyridin-2-yl}-1,3-benzoxazol-5-ol] | < 100 nM

Further lines, the compound ahead of its results:

Structure (SMILES) | IC50 [1, 3] | IC50 [1, 4] | IC50 [2] | AC50 ([1]; RT-qPCR)
Cc1c(O)c(-c2ccc3nc(N4CCC(NC(C)C)C4)ccc3n2)cc2cn(C)nc12 (stereo not shown) [Compound 318, 5-{6-[3-(isopropylamino)pyrrolidin-1-yl]-1,5-naphthyridin-2-yl}-2,7-dimethylindazol-6-ol] | < 100 nM | < 100 nM | < 100 nM | < 100 nM
Cc1c(O)c(-c2ccc3nc(N4CC[C@H](NC(C)C)C4)ccc3n2)cc2cn(C)nc12 [Compound 320] | < 100 nM | < 100 nM | < 100 nM | < 100 nM
Cc1nc2c(F)c(O)c(-c3ccc4nc(N5CCC(NC6(C)CC6)C5)ccc4n3)cc2o1 (stereo not shown) [Compound 325, 4-fluoro-2-methyl-6-(6-{3-[(1-methylcyclopropyl)amino]pyrrolidin-1-yl}-1,5-naphthyridin-2-yl)-1,3-benzoxazol-5-ol] | < 100 nM | < 100 nM | < 100 nM | < 100 nM
Cc1nc2c(F)c(O)c(-c3ccc4nc(N5CCC(NC(C)C)C5)ccc4n3)cc2o1 (stereo not shown) [Compound 328, 4-fluoro-6-{6-[3-(isopropylamino)pyrrolidin-1-yl]-1,5-naphthyridin-2-yl}-2-methyl-1,3-benzoxazol-5-ol] | < 100 nM | < 100 nM | < 100 nM | < 100 nM
CN[C@@H]1CCN(c2ccc3nc(-c4cc(F)c5nc(C)cn5c4)ncc3n2)C1 [Compound 331, (3R)-1-(2-{8-fluoro-2-methylimidazo[1,2-a]pyridin-6-yl}pyrido[3,2-d]pyrimidin-6-yl)-N-methylpyrrolidin-3-amine] | 100 to 1000 nM | 100 to 1000 nM | 100 to 1000 nM | 100 to 1000 nM
CN[C@H]1CCN(c2ccc3nc(-c4cc(F)c5nc(C)cn5c4)ncc3n2)C1 [Compound 332, (S)-1-(2-(8-fluoro-2-methylimidazo[1,2-a]pyridin-6-yl)pyrido[3,2-d]pyrimidin-6-yl)-N-methylpyrrolidin-3-amine] | 100 to 1000 nM | 100 to 1000 nM | 100 to 1000 nM | 100 to 1000 nM
CC(C)(C)NC1CCN(c2ccc3nc(-c4cc5oc(C6CC6)nc5cc4O)ccc3n2)C1 (stereo not shown) [Compound 333, 6-{6-[3-(tert-butylamino)pyrrolidin-1-yl]-1,5-naphthyridin-2-yl}-2-cyclopropyl-1,3-benzoxazol-5-ol] | 100 to 1000 nM | 100 to 1000 nM | 100 to 1000 nM | 100 to 1000 nM
COCc1nc2cc(O)c(-c3ccc4nc(N5CCC(NC(C)(C)C)C5)ccc4n3)cc2o1 (stereo not shown) [Compound 334, 6-{6-[3-(tert-butylamino)pyrrolidin-1-yl]-1,5-naphthyridin-2-yl}-2-(methoxymethyl)-1,3-benzoxazol-5-ol] | 100 to 1000 nM | 100 to 1000 nM | 100 to 1000 nM | 100 to 1000 nM
COc1cc2nc(C3COC3)oc2cc1-c1ccc2nc(N3CCC(NC(C)(C)C)C3)ccc2n1 (stereo not shown) [Compound 335] | 1000 to 10000 nM | 1000 to 10000 nM | 1000 to 10000 nM | 1000 to 10000 nM
CC(C)(C)NC1CCN(c2ccc3nc(-c4cc5oc(CO)nc5cc4O)ccc3n2)C1 (stereo not shown) [Compound 336, 6-{6-[3-(tert-butylamino)pyrrolidin-1-yl]-1,5-naphthyridin-2-yl}-2-(hydroxymethyl)-1,3-benzoxazol-5-ol] | < 100 nM | < 100 nM | 100 to 1000 nM | 100 to 1000 nM
CNC1CCN(c2ccc3nc(-c4cc5cn(C)nc5c(C)c4O)ncc3n2)C1 (stereo not shown) [Compound 337, 2,7-dimethyl-5-{6-[3-(methylamino)pyrrolidin-1-yl]pyrido[3,2-d]pyrimidin-2-yl}indazol-6-ol] | 100 to 1000 nM | 100 to 1000 nM | > 10000 nM | 100 to 1000 nM
Cc1cc2nc(-c3ccc4nc(N5CCC(NC(C)(C)C)C5)ccc4n3)cn2c(C)n1 (stereo not shown) [Compound 344, N-tert-butyl-1-(6-{5,7-dimethylimidazo[1,2-c]pyrimidin-2-yl}-1,5-naphthyridin-2-yl)pyrrolidin-3-amine] | 1000 to 10000 nM | 1000 to 10000 nM | > 10000 nM | 1000 to 10000 nM

— patent US20250092065A1, “2-(INDAZOL-5-YL)-6-(PIPERIDIN-4-YL)-1,7-NAPHTHYRIDINE DERIVATIVES AND RELATED COMPOUNDS AS MODULATORS FOR SPLICING NUCLEIC ACIDS AND FOR THE TREATMENT OF PROLIFERATIVE DISEASES” (REMIX THERAPEUTICS INC., priority 2022, published 2025)
